Laboratory results taken from paper PMC11201061, “Mechanistic Study of Antimicrobial Effectiveness of Cyclic Amphipathic Peptide [R4W4] against Methicillin-Resistant Staphylococcus aureus Clinical Isolates” (Antibiotics, 2024).
Where a SMILES comes first, the peptide text is derived from it.

Columns and labels:
in vitro = details: human, 100% human plasma
Experimental: At the end of incubation at each of the time points, acetonitrile was added to the incubation mixture, followed by centrifugation. Samples were analyzed by HPLC-MS/MS, and peak areas were recorded for each analyte. The area of precursor compound remaining after each time point relative to the amount remaining at time zero, expressed as percent, is calculated. Subsequently, the half-life (T1/2) is estimated from the slope of the initial linear range of the logarithmic curve of the compound remaining (%) versus time, assuming first-order kinetics. The plasma stability experiment was performed at Eurofins Inc. (San Diego, CA, USA) [56].

[1] = 25% fresh human serum in RPMI buffer, 37 °C, peptide 100 µg/mL, 20 h; LC-MS; three independent experiments
Experimental: Fresh human serum (4 mL) was centrifuged at 12,500× g for 15 min at 4 °C to remove the lipids. A 25% human serum sample was prepared by adding 375 µL of the human serum supernatant to 1125 µL of RPMI buffer. […] The test sample was incubated in a water bath at 37 °C until a predetermined time interval (0, 1, 2, 4, 6, 8.5, 12, and 20 h). At the time intervals, a 150 µL aliquot test sample was added to a 300 µL cocktail solution [ethanol/formic acid (98:2 v/v) mixture] to cease the reaction. The test samples of aliquots were stored on dry ice for 20 min and then centrifuged at 17,200× g for 20 min. For LC-MS analysis, 150 µL supernatant aliquot test samples were stored at −20 °C [54].
A 20 μL aliquot of each sample was analyzed using an Xterra MS C18 column (3.9 × 150 mm, 5 μm, Waters, MA, USA), Nexera XR, and Prominence Shimadzu LC-20AD XR systems (Shimadzu Corporation, Kyoto, Japan) coupled with Shimadzu LC-MS-2020 mass spectrometer (Shimadzu, OR, USA). A two-component LC system consisted of mobile phase A (0.1% formic acid and 10% acetonitrile in water) and mobile phase B (0.1% formic acid and 100% acetonitrile). The flow rate was set at 1.0 mL/min. The Xterra MS C18 column at 40 °C was allowed to equilibrate with 95% mobile phase A. Peptides were loaded to the column and washed for 5 min with 95% mobile Phase A. Analytes were separated using a binary gradient of 0–95% mobile Phase B for 25 min. […] MS was conducted in multiple reaction monitoring and positive electrospray ionization mode. Fourteen concentrations of [R4W4] prepared by two-fold dilution of 200 μg/mL to 0.39 μg/mL were used to prepare calibration curves. The calibration curves were plotted using weighted (1/×2) least-squares linear regression analysis of peptide mass spectra area under the curve (AUC) versus concentration.

E. coli 25922 = assay: Checkered board synergy assay with gentamicin; format: cell-based, Escherichia coli
Experimental: (§1) An amount of 100 µL of [R4W4] peptide test solution at a final concentration of 512 µg/mL was added to each well A-G column 1 in plate A using a multi-channel pipette. A 50 µL MH Broth was added to micro-plate well A-G columns 2–9. Using a multi-channel pipette, a two-fold serial dilution was performed by removing 50 µL solution from column 1 and was added to column 2 with thorough mixing. The micro-pipette was discarded after each transfer. The last portion after column 9 was discarded. In another microplate, 100 µL MHB was added to well B-G columns 1–11 using a multi-channel pipette. A 200 µL gentamicin test solution 512 µg/mL was added to row A, columns 1–11. A two-fold serial dilution was performed by removing 100 µL from rows A to B. The last portion was discarded. Using eight multi-channel pipettes, 50 µL of gentamicin test solution was transferred in the ordinate column A-G row 1 to the first microplate. The plate was incubated at 37 °C for 18–24 h. The fractional inhibitory concentration (FIC) of the antibacterial agents and the fractional inhibitory concentration index (FICI) of the two antibacterial agents were determined to evaluate the synergistic interaction. The FICI was interpreted as follows: FICI ≤ 0.5, synergy; 0.5 < FICI ≤ 1, partial synergy; 1 ≤ FICI < 4, additive effect or indifference; 4 ≤ FICI antagonism and calculated from the mean values from multiple experiments.

MRSA USA300 = assay: Checkered board synergy assay with gentamicin; format: cell-based, Staphylococcus aureus
Experimental: as §1

For `N=C(N)NCCC[C@@H]1NC(=O)[C@H](CCCNC(=N)N)NC(=O)[C@H](CCCNC(=N)N)NC(=O)[C@H](Cc2c[nH]c3ccccc23)NC(=O)[C@H](Cc2c[nH]c3ccccc23)NC(=O)[C@H](Cc2c[nH]c3ccccc23)NC(=O)[C@H](Cc2c[nH]c3ccccc23)NC(=O)[C@H](CCCNC(=N)N)NC1=O` [[R4W4]] (cyclo(RRRRWWWW)), the half-life at 1 µM (in vitro) was ~1.43 h, the “remaining [R4W4] (intact peptide)” value [1] was “over 70%” and the “MIC(A+B) ([R4W4] in combination with gentamicin)” value (E. coli 25922; E. coli 25922, checkered board) was 1.5 µg/mL. The “MICA ([R4W4] alone)” value (E. coli 25922; E. coli 25922, checkered board, 37 °C, 18–24 h, mean values from multiple experiments) was 32 µg/mL, the FICA (E. coli 25922; E. coli 25922, fractional inhibitory concentration of [R4W4]) was 0.05 and the “reduction in MIC value in combination” value (E. coli 25922; E. coli, [R4W4] + gentamicin combination versus alone) was 2 fold. The “MIC(A+B) ([R4W4] in combination with gentamicin)” value (MRSA USA300; MRSA USA300, checkered board) was 1.5 µg/mL, the “MICA ([R4W4] alone)” value (MRSA USA300; MRSA USA300, checkered board, 37 °C, 18–24 h, mean values from multiple experiments) was 6 µg/mL and the FICA (MRSA USA300; MRSA USA300, fractional inhibitory concentration of [R4W4]) was 0.25. For the same compound, the “reduction in MIC value in combination” value (MRSA USA300; MRSA, [R4W4] + gentamicin combination versus alone) was 4 fold.
